Test results reported in paper PMC3691235, “Discovery of a Novel Dual Fungal CYP51/Human 5-Lipoxygenase Inhibitor: Implications for Anti-Fungal Therapy” (PLoS ONE, 2013).
Read-outs that look alike come from different tables or passages of the source.

Key:
[1] = biological target: T1, Homo sapiens CYP51 (HsCYP51) (Homo sapiens, UniProt Q16850); assay: Azole binding to HsCYP51 (type II difference spectra titration); conditions: for Kd: 5 µM HsCYP51, Morrison equation
T1 construct: made in house; host or cells: E. coli
T1 sequence (Q16850 1-509): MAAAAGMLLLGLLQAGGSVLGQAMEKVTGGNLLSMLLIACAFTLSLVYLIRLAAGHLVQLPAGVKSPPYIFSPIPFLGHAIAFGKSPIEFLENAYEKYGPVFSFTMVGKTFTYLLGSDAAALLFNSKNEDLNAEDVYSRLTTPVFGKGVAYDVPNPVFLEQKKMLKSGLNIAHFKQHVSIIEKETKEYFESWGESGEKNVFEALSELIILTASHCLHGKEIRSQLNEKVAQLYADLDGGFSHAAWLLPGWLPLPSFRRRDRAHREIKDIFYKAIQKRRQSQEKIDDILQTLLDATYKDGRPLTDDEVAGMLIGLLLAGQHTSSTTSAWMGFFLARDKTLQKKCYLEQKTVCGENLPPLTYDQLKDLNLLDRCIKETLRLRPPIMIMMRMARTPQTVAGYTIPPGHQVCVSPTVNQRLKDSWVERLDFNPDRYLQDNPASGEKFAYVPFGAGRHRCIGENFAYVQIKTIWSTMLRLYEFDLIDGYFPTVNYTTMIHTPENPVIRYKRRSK
Procedure: Native cytochrome P450 concentrations were determined by reduced carbon monoxide difference spectra, based on an extinction coefficient of 91 mM^−1 cm^−1 [42], [43]. Binding of azole antifungal agents to 5 µM CaCYP51 and 5 µM HsCYP51 were performed as previously described, [44], using 0.25 and 0.5 mg mL^−1 stock solutions of ketoconazole and ketaminazole in DMSO. Azole antifungal agents were progressively titrated against the CYP51 protein in 0.1 M Tris-HCl (pH 8.1) and 25% (wt/vol) glycerol, with the spectral difference determined after each incremental addition of azole. The dissociation constant (Kd) of the enzyme-azole complex was determined by nonlinear regression (Levenberg-Marquardt algorithm) of ΔA peak-trough against azole concentration using a rearrangement of the Morrison equation [45] and fitted by the computer program ProFit 6.1.12 (QuantumSoft, Zurich, Switzerland).

HsCYP51 = biological target: T2, HsCYP51 (Homo sapiens, UniProt Q16850); assay: CYP51 reconstitution assay, HsCYP51; format: biochemical; conditions: for IC50: 0.3 µM HsCYP51, 50 µM lanosterol
T2 construct: made in house; host or cells: E. coli
T2 sequence (Q16850 1-509): T1 sequence (Q16850 1-509)
Procedure: Azole antifungal agents were added in 5 µL DMSO followed by incubation for 5 minutes at 37°C prior to assay initiation with 4 mM β-NADPHNa4, with shaking for a further 10 minutes at 37°C. Sterol metabolites were recovered by extraction with ethyl acetate followed by derivatization with N,O-bis(trimethylsilyl)trifluoroacetamide and […] prior to analysis by gas chromatography mass spectrometry.

[2] = biological target: T1, Homo sapiens CYP51 (HsCYP51); design: method as in PMID 20149798; conditions: ref [40]; read-out: Kd with HsCYP51, previously reported; cited from earlier work

| selectivity for yeast CYP51 relative to human CYP51 ([1]; yeast vs human CYP51) | remaining activity at 155 µM (HsCYP51; HsCYP51, at 155 µM compound) | fold higher IC50 over ketoconazole with HsCYP51 (HsCYP51; ratio of IC50 values) | SMILES | Kd [1] | fold tighter binding to HsCYP51 compared to ketaminazole (16) ([1]; ratio of Kd values) | IC50 (HsCYP51) | HsCYP51 activity, in words (HsCYP51; at 95 µM compound) | Kd [2] |
| --- | --- | --- | --- | --- | --- | --- | --- | --- |
| – | – | – | CC(=O)N1CCN(c2ccc(OCC3COC(Cn4ccnc4)(c4ccc(Cl)cc4Cl)O3)cc2)CC1 (stereo not shown) [ketoconazole, reference compound] | 42 ± 16 nM | 17 fold | ~5000 nM | inactivated | ~180 nM |
| 17 fold | ~30% | 3 fold | CC(=O)N1CCN(c2ccc(NCC3COC(Cn4ccnc4)(c4ccc(Cl)cc4Cl)O3)cc2)CC1 (stereo not shown) [ketaminazole (16), ketaminazole] | 731 ± 69 nM | – | ~16000 nM | – | – |
